Test results as given in patent publication US20220403326A1, “MEDIA FORMULATIONS AND METHODS FOR PRODUCING PROGENITOR T CELLS” (priority 2019, published 2022).

What was measured:
Assay type in all cases: cell-based, human
CD34+ HSPCs [1] = experiment: Definitive screening design cytokine screen for proT cell differentiation and expansion
Procedure: For experiments 7 days or longer, HSPCs were seeded at 63-125 cells/mm^2 (equivalent to 2000-4000 cells/well of a 96-well plate) on DL4+VCAM-1-coated surfaces. Experiments shorter than 7 days (CFSE and qPCR) were seeded at 470-780 cells/mm^2 (equivalent to 15,000-25,000 cells/well of a 96-well plate) to provide enough cells for analysis. Cells were cultured in 100 μl/well (32 μl/well for 384-well plate) of Iscove's Modified Eagle Medium (IMDM) supplemented with 20% bovine serum albumin, insulin, and transferrin (BIT 9500) serum substitute (Stemcell Technologies), 1 μg/ml low-density lipoprotein (LDL; Stemcell Technologies), 60 μM ascorbic acid (Sigma), 24 μM 2-mercaptoethanol (Sigma), and 1% penicillin-streptomycin (P/S; Invitrogen). The cytokines used in control condition were SCF, FLT3L, TPO, and IL-7 (also known as the “4F cytokines”, all of which were obtained from R&D Systems), each at a concentration of 20 ng/ml or 100 ng/ml as indicated in the text. All other cytokines were purchased from R&D Systems and used in the combinations and concentrations indicated in the text. For certain experiments, the γ-secretase inhibitor (2S)-N-[(3,5-Difluorophenyl)acetyl]-L-alanyl-2-phenyl] glycine 1,1-dimethylethyl ester (DAPT) or dimethyl sulfoxide (DMSO) was added to media at the concentrations indicated in the text.
For screening experiments, a Definitive Screening Design (DSD)^7 was employed where each factor was tested at three levels (scaled to [−1,0,1]). The design included at least 2m+1 runs, where m is the number of factors, comprised of m fold-over pairs plus a center run (with all factors at level 0) and with orthogonal blocking of UCB donors.^8
Absolute cell numbers were acquired for each cell population of interest and, for initial experiments, a z-score was calculated relative to the control condition:
where SE(⋅) is the standard error. Control conditions were the cytokines used previously in the DL4+VCAM-1 assay as in Shukla et al.^6 Stepwise regression using the minimum Bayesian information criterion method was used to determine significant terms and, from this, a linear regression model of z-scores was constructed that included main and quadratic effects and two-factor interactions. This provided a better- or worse-than estimate for each factor compared to the control. The DSD layout and regression model were constructed using JMP 13 software (SAS). Follow up experiments measuring the dose response of top factors, the regression model was fit to the absolute cell count. Values were square root or log-transformed as necessary to ensure that residuals were approximately normal before fitting the regression model.
Test conditions were arranged using serial dilutions of each cytokine and laid out using an Eppendorf epMotion 5070 liquid handler in 384-well plates previously coated with DL4 and VCAM-1.
To identify factors that enhance proT cell differentiation and expansion, a two-part screen was conducted from day 0-7 and day 7-14 to separate the effects of screened molecules on HSPCs and differentiating proT cells (FIG. 1a). Screened molecules were tested at three doses each in combination using a definitive screening design (DSD) experiment and a linear regression model was fit to empirical data to estimate dose response.^7 The response to factors was measured against a control condition that contained SCF, FLT3L, TPO and IL-7 cytokines as in Shukla et al.^6 but using a lower concentration of 20 ng/ml each.
Medium gray indicates the effect of the control condition; dark gray to black indicates an effect greater than the control condition; and light gray to white indicates an effect lesser than the control condition. The size of each circle indicates the significance of the effect in the linear regression model. Combinations of factors indicate two-factor interactions (e.g., TPO*IL-1β) or quadratic effects (e.g., IL-21*IL-21) in the regression model. […] IL-3 and TNFα were selected for further investigation. […]

CD34+ HSPCs [2] = experiment: TPO requirement with or without TNFα, 14-day culture; conditions: 14 days
Procedure: To assess the requirement for TPO in T lineage development, CD34+ HSPCs were analyzed by flow cytometry after 14 days in the presence or absence of TNFα, and further in the presence or absence of TPO.

HSPCs = experiment: DL4 coating concentration titration, 14-day culture, with or without TNFα; conditions: lowest DL4 concentration tested; 14 days; with VCAM-1
Procedure: Tissue culture 96-well plates were coated with DL4-Fc and VCAM-1-Fc (R&D Systems) overnight at 4° C. or for 3-4 hours at room temperature. To coat, DL4 and VCAM-1 were diluted to 15 μg/ml and 2.5 μg/ml, respectively, in 50 μl of phosphate-buffered saline (PBS), resulting in a coating concentration of approximately 24 ng/mm2 of DL4-Fc and 4 ng/mm2 of VCAM-1-Fc. For titration experiments, the concentration of DL4 or VCAM-1 was adjusted accordingly while maintaining a 50 μl volume of PBS. Experiments using 384-well plates scaled were coated similarly but with 16 μl of PBS. Wells were washed once with PBS prior to seeding cells to remove unbound DL4-Fc protein that inhibits Notch signaling.^6
In parallel with the Notch pathway inhibition experiment described above, HSPCs were also seeded on DL4+VCAM-1 for 14 days with decreasing concentrations of DL4 (FIG. 4d). […] Representative flow cytometry plots showing differential proT cell induction with decreasing DL4 concentration in the presence or absence of TNFα are shown in FIG. 4f.

TNFα
effect on total live cells, CD7+ lymphocytes and CD7+CD5+ cells relative to the control condition (CD34+ HSPCs [1]; day 0-7 and day 7-14, control SCF, FLT3L, TPO, IL-7 at 20 ng/ml each, linear regression model): string positive effects
dose response of live cells, CD7+ lymphocytes and CD7+CD5+ proT cells (CD34+ HSPCs [1]; range of concentrations, n=2 UCB donors): curved response in at least one population
T lineage development in the absence of TPO (CD34+ HSPCs [2]): supports T lineage development in the absence of TPO
DL4 coating concentration down to which CD7+CD5+ proT cell development is maintained (HSPCs): ≤ 2 ng/mm^2
